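Exposure lasted 48 hours, with cells grown in 96-well plates and compounds tested at five concentrations. GI50: concentration for 50% inhibition of growth.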 The source made the active and inactive calls. Rule as the data show it: active = GI50 up to about 1.1 µM and inactive = higher.
Key:
Experiment in all cases: NCI-60 cell line screen, 48 h
CAKI-1 = tested on: CAKI-1
IGROV-1 = tested on: IGROV-1
K562 = tested on: K562
LOX IMVI = tested on: LOX IMVI
M14 = tested on: M14
Malme-3M = tested on: Malme-3M
NCI-H226 = tested on: NCI-H226
OVCAR-8 = tested on: OVCAR-8
RXF 393 = tested on: RXF 393
SF-295 = tested on: SF-295
SK-MEL-2 = tested on: SK-MEL-2
SK-MEL-5 = tested on: SK-MEL-5
U-251 = tested on: U-251
UACC-257 = tested on: UACC-257
UACC-62 = tested on: UACC-62
OVCAR-3 = tested on: OVCAR-3
SR = tested on: SR

Measured: GI50

O=C1CCCCC1C1(O)C(=O)Nc2cc(F)ccc21 (configuration not stated)
inactive: CAKI-1 > 100 µM | IGROV-1 > 100 µM | K562 > 100 µM | LOX IMVI > 100 µM | M14 > 100 µM | Malme-3M > 100 µM | NCI-H226 > 100 µM | OVCAR-8 > 100 µM | RXF 393 > 100 µM | SF-295 > 100 µM | SK-MEL-2 > 100 µM | SK-MEL-5 > 100 µM | U-251 > 100 µM | UACC-257 > 100 µM | UACC-62 > 100 µM

CN(N=O)C(=O)ON1C(=O)CCC1=O
inactive: CAKI-1 > 100 µM | IGROV-1 > 100 µM | K562 > 100 µM | LOX IMVI > 100 µM | M14 > 100 µM | Malme-3M > 100 µM | NCI-H226 > 100 µM | OVCAR-3 > 100 µM | OVCAR-8 > 100 µM | SF-295 > 10 µM | SK-MEL-2 > 100 µM | SK-MEL-5 > 100 µM | UACC-257 > 100 µM | UACC-62 > 100 µM

Clc1ccc(C2=NOC(C3CCCCC3)C2)cc1 (configuration not stated)
inactive: IGROV-1 > 100 µM | K562 > 100 µM | M14 > 100 µM | Malme-3M > 100 µM | NCI-H226 > 100 µM | OVCAR-3 > 100 µM | OVCAR-8 > 100 µM | SF-295 > 100 µM | SK-MEL-2 > 100 µM | SK-MEL-5 > 100 µM | SR > 100 µM | U-251 > 100 µM | UACC-257 > 100 µM | UACC-62 > 100 µM

NC1=NNC(=O)c2nnc3c(C(=O)O)cnn3c2S1
inactive: CAKI-1 > 100 µM | IGROV-1 > 100 µM | K562 > 100 µM | M14 > 100 µM | Malme-3M > 100 µM | OVCAR-3 > 100 µM | OVCAR-8 > 100 µM | RXF 393 > 100 µM | SF-295 > 100 µM | SK-MEL-5 > 100 µM | SR > 100 µM | U-251 > 100 µM | UACC-62 > 100 µM

O=C(CP(=O)(O)O)c1cccs1
inactive: CAKI-1 > 100 µM | IGROV-1 > 100 µM | K562 > 100 µM | LOX IMVI > 100 µM | M14 > 100 µM | Malme-3M > 100 µM | OVCAR-3 > 100 µM | OVCAR-8 > 100 µM | SF-295 > 100 µM | SK-MEL-2 > 100 µM | SK-MEL-5 > 100 µM | U-251 > 100 µM | UACC-257 > 100 µM | UACC-62 > 100 µM

O=C(NCCCCCCCCCCCCNC(=O)c1cnc2ccccc2n1)c1cnc2ccccc2n1
inactive: CAKI-1 > 100 µM | IGROV-1 54.3 µM | K562 > 100 µM | LOX IMVI 39.8 µM | M14 > 100 µM | Malme-3M > 100 µM | NCI-H226 48 µM | OVCAR-3 34.7 µM | OVCAR-8 9.4 µM | RXF 393 31.3 µM | SF-295 37 µM | SK-MEL-2 > 100 µM | SK-MEL-5 9.59 µM | U-251 28.8 µM | UACC-257 47.8 µM | UACC-62 > 100 µM

O=S1(=O)c2ccccc2NC(c2ccc3ccccc3c2)CC1c1ccccc1F (configuration not stated)
inactive: CAKI-1 > 100 µM | IGROV-1 > 100 µM | K562 > 100 µM | LOX IMVI > 100 µM | M14 > 100 µM | Malme-3M > 100 µM | NCI-H226 > 100 µM | OVCAR-3 > 100 µM | OVCAR-8 > 100 µM | RXF 393 > 100 µM | SF-295 > 100 µM | SK-MEL-2 > 100 µM | SK-MEL-5 > 100 µM | UACC-257 > 100 µM | UACC-62 > 100 µM

CCOc1cc2c(cnc3c4cc(OC)c(OC)cc4ccc23)cc1OC
inactive: CAKI-1 > 100 µM | IGROV-1 > 100 µM | K562 > 100 µM | M14 > 100 µM | Malme-3M > 100 µM | OVCAR-3 > 100 µM | OVCAR-8 > 100 µM | SF-295 > 100 µM | SK-MEL-2 > 100 µM | SK-MEL-5 > 100 µM | U-251 > 100 µM | UACC-257 > 100 µM | UACC-62 > 100 µM

Cc1cccc(C)c1NC(=O)CCCC(=O)C1CCC/C1=N\NC(=O)C(=O)NN (configuration not stated)
inactive: CAKI-1 > 100 µM | K562 > 100 µM | LOX IMVI > 100 µM | M14 > 100 µM | Malme-3M > 100 µM | NCI-H226 > 100 µM | OVCAR-3 > 100 µM | OVCAR-8 > 100 µM | RXF 393 24.5 µM | SF-295 > 100 µM | SK-MEL-2 > 100 µM | SK-MEL-5 > 100 µM | U-251 > 100 µM | UACC-257 > 100 µM

C=CN1C(=O)OC[C@@H]1c1ccccc1
inactive: CAKI-1 > 100 µM | IGROV-1 > 100 µM | K562 > 100 µM | LOX IMVI 67 µM | M14 > 100 µM | Malme-3M > 100 µM | NCI-H226 > 100 µM | OVCAR-3 > 100 µM | OVCAR-8 > 100 µM | RXF 393 > 100 µM | SF-295 > 100 µM | SK-MEL-2 > 100 µM | SK-MEL-5 > 100 µM | U-251 96.6 µM | UACC-257 > 100 µM | UACC-62 > 100 µM

CC(=O)Nc1ccc(/C=C2\N=C(c3ccccc3)OC2=O)cc1
inactive: IGROV-1 > 31.6 µM | K562 > 100 µM | LOX IMVI 80.2 µM | M14 > 100 µM | Malme-3M 6.1 µM | NCI-H226 > 100 µM | OVCAR-8 6.32 µM | RXF 393 82.8 µM | SF-295 65.2 µM | SK-MEL-2 > 100 µM | SK-MEL-5 57.8 µM | U-251 > 100 µM | UACC-257 > 100 µM | UACC-62 27.2 µM

O=C1CCSC2=C1SCc1sccc12
inactive: CAKI-1 > 100 µM | IGROV-1 > 100 µM | K562 > 100 µM | LOX IMVI > 100 µM | M14 > 100 µM | Malme-3M > 100 µM | OVCAR-3 > 100 µM | OVCAR-8 > 100 µM | RXF 393 > 100 µM | SF-295 > 100 µM | SK-MEL-2 > 100 µM | SK-MEL-5 > 100 µM | UACC-257 > 100 µM | UACC-62 > 100 µM

CCOC(=O)/C=C/c1ccccn1
inactive: CAKI-1 > 100 µM | IGROV-1 > 100 µM | K562 > 100 µM | LOX IMVI > 100 µM | M14 > 100 µM | Malme-3M > 100 µM | NCI-H226 > 100 µM | OVCAR-8 > 100 µM | SF-295 > 100 µM | SK-MEL-2 > 100 µM | SK-MEL-5 > 100 µM | SR > 100 µM | U-251 > 100 µM | UACC-257 > 100 µM | UACC-62 > 100 µM

COc1ccc2c(c1)CCc1cnn(C3OC(COC(C)=O)C(OC(C)=O)C(OC(C)=O)C3OC(C)=O)c1-2 (configuration not stated)
inactive: CAKI-1 76.2 µM | K562 14.5 µM | LOX IMVI > 100 µM | M14 56 µM | Malme-3M > 10 µM | NCI-H226 79.6 µM | OVCAR-3 23.9 µM | OVCAR-8 > 100 µM | SF-295 > 100 µM | SK-MEL-2 > 100 µM | SK-MEL-5 44.4 µM | SR 26.1 µM | U-251 22.5 µM | UACC-257 > 100 µM | UACC-62 66.5 µM
